Assay results published in article PMC3578765 (PLoS Neglected Tropical Diseases, 2013).
Where two headings read alike, the source gives them in different places.

Experiments:
Huh-7.5 = assay: assay validation with reference compounds, percent cell number in DENV2-infected Huh-7.5; conditions: percent cell number normalized against MOCK-infected Huh-7.5, DENV2-infected cells
Protocol: Acquired images were analyzed using our in-house developed image-mining platform (IM). This platform is designed to do high-content screening and directly access the database of images that were sequentially analyzed with specially designed algorithms developed as a customized plug-in to the IM platform. The results of all the analyses were stored in a centralized database. […] To define the percentage of dengue-infected cells and, conversely the non-infected cells, a modified watershed method was applied. Compared to the original watershed algorithm that uses the morphological gradient image, a weighted gradient image is used for the topographic surface, whose weights are defined as the ridge values computed from the eigen values of the original image. The percentage of non-infected cells, which is also defined as the percent inhibition or percent activity, is derived by using the formula: [1−(A488-positive cells/total cells)]×100%.
In both validation experiments, Huh-7.5 was mixed with DENV1, DENV2, DENV3 or DENV4 at a M.O.I. of 0.5 or VM only for MOCK-infection and dispensed in designated wells using the Thermo Scientific WellMate automated liquid dispenser. For the first validation experiment, the statistical reliability of the dengue HT/HCA was determined by calculating the Z'-factor for the percent infection or percent inhibition. Briefly, the Z'-factor of a defined parameter is calculated using the formula: 1−[(3σp+3σn)/(|μp−μn|)], where the μp, μn, σp and σn are the means (μ) and standard deviations (σ) of the positive (p) and negative (n) controls. For the second validation experiment, the reference compounds were prepared in 2-fold serial dilutions and dispensed in duplicate wells in the 384-well plate, followed by the Huh-7.5 and DENV mixture (M.O.I. 0.5). Percent infection, percent inhibition, and percent cell number were determined using the customized IM platform plug-in. Scatter-plot distribution was generated using TIBCO Spotfire 4.5.0 (TIBCO Software Inc., Somerville, MA). […] The top and bottom values of the reference compounds were unconstrained when the curve fittings of the 10-pt. DRCs were generated.
Similarly, the percent cell number was normalized based on the measured cell number in MOCK-infected (100% cell number) controls according to the formula: % cell number = (Cmeasured/μCMOCK-infect)×100%, where Cmeasured is the measured cell number in the test well and μCMOCK-infect is the average cell number in the MOCK-infected controls. The statistical validity of the dengue high-throughput screening was determined by calculating for the Z'-factor using the 0.5% DMSO-treatment and MOCK-infected Huh-7.5 as negative and positive controls, respectively. In addition, other parameters, including DRC of a reference compound, were used to evaluate the assay performance.

[1] = system: BR DEN2 01-01 infection of Huh-7.5; assay: assay validation with reference compounds, 10-pt DRC of percent infection; assay type: cell-based, Dengue virus
Protocol: (§1) An immunofluorescence assay (IFA) used to detect dengue infection was optimized for the dengue HT/HCA. Briefly, cells were fixed with 4% (w/v) paraformaldehyde (PFA) for 20 min at room temperature (Rm T). PFA-fixed cells were treated with 0.25% (v/v) Triton-X for 20 min at Rm T. DENV-infected cells were detected by probing with 4G2 mAb prepared in blocking buffer: DPBS containing 5% FBS for 30 min at 37°C, followed by AlexaFluor-conjugated goat anti-mouse IgG (H+L) (Invitrogen Molecular Probes, USA) prepared in blocking buffer for 30 min at 37°C. Cell nuclei counterstained with 5 µg/mL 4′,6-diamidino-2-phenylindole (DAPI, Sigma-Aldrich, USA). Two washing cycles of DPBS was done after each step of the IFA. After the final washing, digital images were acquired using a high-throughput confocal fluorescence imaging system (Evotec Technologies High-Throughput Cell Analyzer Opera, Perkin Elmer, USA). The digital images were taken from 3 different fields of each well at 20× magnification.
(§2) Acquired images were analyzed using our in-house developed image-mining platform (IM). This platform is designed to do high-content screening and directly access the database of images that were sequentially analyzed with specially designed algorithms developed as a customized plug-in to the IM platform. The results of all the analyses were stored in a centralized database. […] One channel (DAPI-channel) captures the signal emitted by DAPI-stained nuclei at 450 nm, while the other channel (A488-channel) captures the signal emitted by the AlexaFluor 488 dye bound to the dengue E protein-antibody complexes confined in the cytoplasm of dengue-infected cells at 540 nm. To define the percentage of dengue-infected cells and, conversely the non-infected cells, a modified watershed method was applied. Compared to the original watershed algorithm that uses the morphological gradient image, a weighted gradient image is used for the topographic surface, whose weights are defined as the ridge values computed from the eigen values of the original image. The percentage of non-infected cells, which is also defined as the percent inhibition or percent activity, is derived by using the formula: [1−(A488-positive cells/total cells)]×100%.
In both validation experiments, Huh-7.5 was mixed with DENV1, DENV2, DENV3 or DENV4 at a M.O.I. of 0.5 or VM only for MOCK-infection and dispensed in designated wells using the Thermo Scientific WellMate automated liquid dispenser. For the first validation experiment, the statistical reliability of the dengue HT/HCA was determined by calculating the Z'-factor for the percent infection or percent inhibition. Briefly, the Z'-factor of a defined parameter is calculated using the formula: 1−[(3σp+3σn)/(|μp−μn|)], where the μp, μn, σp and σn are the means (μ) and standard deviations (σ) of the positive (p) and negative (n) controls. For the second validation experiment, the reference compounds were prepared in 2-fold serial dilutions and dispensed in duplicate wells in the 384-well plate, followed by the Huh-7.5 and DENV mixture (M.O.I. 0.5). Percent infection, percent inhibition, and percent cell number were determined using the customized IM platform plug-in. Scatter-plot distribution was generated using TIBCO Spotfire 4.5.0 (TIBCO Software Inc., Somerville, MA). The ten-point dose-response curves (10-pt DRCs) were plotted using the non-linear regression formula: log (inhibitor) vs. response – variable slope (4 parameters), available in GraphPad Prism 5.04 (GraphPad Software Inc., San Diego, CA). The top and bottom values of the reference compounds were unconstrained when the curve fittings of the 10-pt. DRCs were generated.

[2] = system: DENV2 (BR DEN2 01-01) infection in Huh-7.5; assay: image-based dengue HT/HCA, 10-pt dose-response hit confirmation, DENV2; assay type: cell-based; conditions: Dengue virus, read-out: EC50 DENV2
Protocol: as §1, §2
(§3) The BioFocus kinase inhibitor library were screened against DENV1, DEN2, DENV3 and DENV4 at 10 µM in 0.5% (v/v) DMSO. MOCK-infected Huh-7.5 and IFN-α2A (500 U/mL) were used as positive controls, and the 0.5% DMSO vehicle was used as negative control. Four sets of 15 384-well plates (13 plates designated for test compounds and 2 plates designated for DMSO vehicle control) were used for the primary screening of the BioFocus kinase inhibitor library against each dengue serotype. Each of the 4,000 compounds in the library was tested in single wells. For data normalization and quality control of the screening, each test compound plate contained 16 replicates of the positive and negative controls. After dispensing the test compounds IFN-α2A and DMSO vehicle in the 384-well plates, Huh-7.5 was mixed with DENV1, DENV2, DENV3, or DENV4 to achieve a M.O.I. of 0.5 and dispensed at 5×10^3 cells/well using the Thermo Scientific WellMate automated liquid dispenser. For the MOCK-infected Huh-7.5, the cells were mixed with VM and dispensed under the same conditions as previously stated. Virus infection in the presence of the compounds proceeded at 37°C, 5% CO2 for 96 hrs. Compound activity based on percent inhibition and cell toxicity was assessed by IFA and IM analysis as described above. Scatter-plot distribution of the entire screening was generated using TIBCO Spotfire 4.5.0 (TIBCO Software Inc., Somerville, MA).
(§4) The calculated activity was normalized to a percent inhibition (PI) based on the MOCK-infected cells (100% activity, or zero infection) and dengue-infected cells (0% activity, or maximum measured infection percentage) controls according to the formula: [drawing 1] where: PImeasured - percent inhibition of test compound […]

[3] = system: DENV3 (BR DEN3 290-02) infection in Huh-7.5; assay: image-based dengue HT/HCA, 10-pt dose-response hit confirmation, DENV3; assay type: cell-based; conditions: Dengue virus, read-out: EC50 DENV3
Protocol: as §1, §2, §3, §4

[4] = system: DENV1 (Den1 BR/90) infection in Huh-7.5; assay: image-based dengue HT/HCA, 10-pt dose-response hit confirmation, DENV1; assay type: cell-based; conditions: Dengue virus, read-out: EC50 DENV1
Protocol: as §1, §2, §3, §4

[5] = compound toxicity, resazurin reduction assay in uninfected Huh-7.5; assay type: cell-based; conditions: human, uninfected Huh-7.5 cells, Huh-7.5 without viral infection, 10-pt DRC
Protocol: The hits identified from the primary screening were also tested at 10 µM against CHIKV-118-GFP infection in HuH-7 cells and evaluated by resazurin reduction assay (RRA). Resazurin (7-Hydroxy-3H-phenoxazin-3-one 10-oxide) is reduced to the red fluorescent resorufin by redox enzymes produced by viable cells, and is a good indication of metabolic capacity, and by extension cell viability. The amount of converted resorufin was measured as relative fluorescence readout (RFU) at excitation/emission of 531/572 nm using a fluorescence spectrophotometer (Victor^3 V Spectrophotometer, Perkin Elmer, USA). Briefly, cells were inoculated with CHIKV-118-GFP at an M.O.I. of 0.5 and seeded in 384-well plates containing reference and primary hit compounds and incubated under humidified conditions for 72 hrs at 37°C. Resazurin solution was added to a final concentration of 10 µM and further incubated for another 12 hrs prior to measurement of RFU. The percent activity of the compounds, reflected by the percent cell viability, was quantified by normalizing against the RFUs of MOCK-infected cells and CHIKV-118-GFP-infected cells. Compounds resulting in normalized RFU ≥70% were considered as positive hits for anti-CHIKV activity.
To confirm the compound activity against dengue viruses, the selected hits from the primary screening were tested in a 10-pt. DRC (2-fold serial dilution from 50 µM) using the same assay described for the dengue HT/HCA. Each concentration of the hit compounds was tested in duplicate wells. Data generated from image analysis of the 10-pt. DRC was plotted and analyzed using the non-linear regression formula: log (inhibitor) vs. response – […] (4 parameters) in GraphPad Prism 5.04. […] Compound toxicity was determined by testing the hit compounds in a 10-pt. DRC against Huh-7.5 in the absence of viral infection and measuring the cell viability using resazurin reduction assay as described above. […] Confirmed hits were selected based on their Selectivity Index (SI), a dimensionless value that indicates the magnitude between cytotoxic concentration and effective concentration, and is calculated as: SI = CC50/EC50.

[6] = system: DENV4 (DEN4 TVP-360) infection in Huh-7.5; assay: image-based dengue HT/HCA, 10-pt dose-response hit confirmation, DENV4; assay type: cell-based; conditions: Dengue virus, read-out: EC50 DENV4
Protocol: as §1, §2, §3, §4

[7] = percent infection normalized against DENV2-infected Huh-7.5, M.O.I. 0.5, read-out: IC50
[8] = DENV2, Huh7.5, Huh-7.5, M.O.I. 0.5, 96 hrs
[9] = DENV3, Huh7.5, Huh-7.5, M.O.I. 0.5, 96 hrs
[10] = DENV1, Huh7.5, Huh-7.5, M.O.I. 0.5, 96 hrs
[11] = DENV4, Huh7.5, Huh-7.5, M.O.I. 0.5, 96 hrs

Compound | CC50 (Huh-7.5) [µM] | IC50 [1, 7] [µM] | EC50 [2, 8] [µM] | EC50 [3, 9] [µM] | EC50 [4, 10] [µM] | CC50 at 72 h [5] [µM] | EC50 [6, 11] [µM] | further results
C=CCNC(=O)c1cc([N+](=O)[O-])cc2c(=O)[nH]c(Nc3ccc(Cl)c(Cl)c3)nc12 [AZ 10417808] | 148 | 82.3 |  |  |  |  |  | 
CCN(CC)CC1CCN(c2ncc3ncnc(Nc4ccc(F)c(Cl)c4)c3n2)CC1 [BIBU 1361] | 4.5 | 4.34 |  |  |  |  |  | 
NC(Cc1ccc(Cl)cc1)c1csc(Nc2ccc(S(N)(=O)=O)cc2)n1 (stereo not shown) [CND0968] |  |  | 6.4 | 6.2 | > 25 | 29 | 1.1 | 
CCCc1cnc(Nc2nc(C(N)Cc3ccccc3)cs2)nc1 (stereo not shown) [CND0975] |  |  | 5.5 | > 50 | 1 | 44 | > 50 | 
COc1ccc(CC(N)c2csc(Nc3nccc(NCc4ccco4)n3)n2)cc1 (stereo not shown) [CND1020] |  |  |  |  | 3.9 | 25 |  | EC50 ([2]; DENV2, Huh7.5, 96 h): 13 µM; EC50 ([3]; DENV3, Huh7.5, 96 h): 3.4 µM; EC50 ([6]; DENV4, Huh7.5, 96 h): 19 µM
NC(Cc1ccccc1)c1csc(Nc2ccccn2)n1 (stereo not shown) [CND1043] |  |  | 3.1 | 5.7 |  | 43 | 6.9 | EC50 ([4]; Huh7.5, 96 h): 4.1 µM
COc1cccc(Nc2nc(C(N)CC(C)C)cs2)n1 (stereo not shown) [CND1057] |  |  | 1 | 2.9 | 3.3 | 23 | 10 | 
NC(Cc1ccc(C(F)(F)F)cc1)c1csc(Nc2ncccn2)n1 (stereo not shown) [CND1081] |  |  | 2.1 | 3.1 | 1.5 | > 100 | 12 | 
NC(Cc1ccc(C(F)(F)F)cc1)c1csc(Nc2nccc(NCCCO)n2)n1 (stereo not shown) [CND1172] |  |  | 10.4 | 4.8 | 7.3 | 15 | 7.5 | 
CS(=O)(=O)c1cnc(Nc2nc(C(N)Cc3ccc(Cl)cc3)cs2)nc1 (stereo not shown) [CND1244] |  |  | 2.9 | 1.6 | 1.7 | 21 | 4.4 | 
CCN(CC)CCCC(C)Nc1ccnc2cc(Cl)ccc12 (stereo not shown) [Chloroquine] |  |  |  |  |  |  |  | IC50 ([1]; Dengue virus, DENV2, Huh7.5): 17.4 µM
CN1c2cc3c(cc2N=C(c2ccc(C(=O)O)cc2)c2ccccc21)C(C)(C)CCC3(C)C [LE 135] | 23.9 | 11.7 |  |  |  |  |  | 
Cc1c(-c2ccc(O)cc2)nn(-c2ccc(O)cc2)c1-c1ccc(OCCN2CCCCC2)cc1 [MPP] | 5.86 | 6.85 |  |  |  |  |  | 
